Measurements: ChEMBL document CHEMBL5463729, “Data for DCP probe BAY 1753011” (2023)

Columns and labels:
[1] = biological target: Rho-associated protein kinase 1 (Homo sapiens) (UniProt Q13464); experiment: Inhibition of ROCK-I(h) at 10.0 µM in the Eurofins Kinase panel; conditions: Compound concentration 10.0 uM
[2] = biological target: Activin receptor type-1 (Homo sapiens) (UniProt Q04771); experiment: Inhibition of ALK2(h) at 10.0 µM in the Eurofins Kinase panel; conditions: Compound concentration 10.0 uM
[3] = biological target: Macrophage colony-stimulating factor 1 receptor (Homo sapiens) (UniProt P07333); experiment: Inhibition of Fms(h) at 10.0 µM in the Eurofins Kinase panel; conditions: Compound concentration 10.0 uM
[4] = biological target: [Pyruvate dehydrogenase (acetyl-transferring)] kinase isozyme 4, mitochondrial (Homo sapiens) (UniProt Q16654); experiment: Inhibition of PDHK4(h) at 10.0 µM in the Eurofins Kinase panel; conditions: Compound concentration 10.0 uM
[5] = biological target: Dual specificity mitogen-activated protein kinase kinase 1 (Homo sapiens) (UniProt Q02750); experiment: Inhibition of MEK1(h) at 10.0 µM in the Eurofins Kinase panel; conditions: Compound concentration 10.0 uM
[6] = biological target: Mitogen-activated protein kinase kinase kinase 7 (Homo sapiens) (UniProt O43318); experiment: Inhibition of TAK1(h) at 10.0 µM in the Eurofins Kinase panel; conditions: Compound concentration 10.0 uM
[7] = biological target: Mitogen-activated protein kinase 9 (Homo sapiens) (UniProt P45984); experiment: Inhibition of JNK2alpha2(h) at 10.0 µM in the Eurofins Kinase panel; conditions: Compound concentration 10.0 uM
[8] = biological target: Phosphatidylinositol 5-phosphate 4-kinase type-2 alpha (Homo sapiens) (UniProt P48426); experiment: Inhibition of PIP4K2a(h) at 10.0 µM in the Eurofins Kinase panel; conditions: Compound concentration 10.0 uM
[9] = biological target: Glutamate receptor 2 (Homo sapiens) (UniProt P42262); conditions: Rattus norvegicus; Compound concentration 10.0 uM
[10] = biological target: Glutamate NMDA receptor (Rattus norvegicus) (UniProt P35439+Q00959+Q00960+Q00961+Q62645+Q8VHN2+Q9R1M7); conditions: Compound concentration 10.0 uM
[11] = biological target: Tyrosine-protein kinase Lck (Homo sapiens) (UniProt P06239); experiment: Inhibition of Lck(h) activated at 10.0 µM in the Eurofins Kinase panel; conditions: Compound concentration 10.0 uM
[12] = biological target: Protein-tyrosine kinase 2-beta (Homo sapiens) (UniProt Q14289); experiment: Inhibition of Pyk2(h) at 10.0 µM in the Eurofins Kinase panel; conditions: Compound concentration 10.0 uM
[13] = biological target: Serine/threonine-protein kinase DCLK1 (Homo sapiens) (UniProt O15075); experiment: Inhibition of DCAMKL1(h) at 10.0 µM in the Eurofins Kinase panel; conditions: Compound concentration 10.0 uM
[14] = biological target: Mu-type opioid receptor (Homo sapiens) (UniProt P35372); conditions: Compound concentration 10.0 uM
[15] = biological target: Mitogen-activated protein kinase kinase kinase 10 (Homo sapiens) (UniProt Q02779); experiment: Inhibition of MLK2(h) at 10.0 µM in the Eurofins Kinase panel; conditions: Compound concentration 10.0 uM
[16] = biological target: Megakaryocyte-associated tyrosine-protein kinase (Homo sapiens) (UniProt P42679); experiment: Inhibition of MATK(h) at 10.0 µM in the Eurofins Kinase panel; conditions: Compound concentration 10.0 uM
[17] = biological target: NUAK family SNF1-like kinase 2 (Homo sapiens) (UniProt Q9H093); experiment: Inhibition of NUAK2(h) at 10.0 µM in the Eurofins Kinase panel; conditions: Compound concentration 10.0 uM
[18] = biological target: Beta-1 adrenergic receptor (Homo sapiens) (UniProt P08588); conditions: Compound concentration 10.0 uM
[19] = biological target: Homeodomain-interacting protein kinase 2 (Homo sapiens) (UniProt Q9H2X6); experiment: Inhibition of HIPK2(h) at 10.0 µM in the Eurofins Kinase panel; conditions: Compound concentration 10.0 uM
[20] = biological target: Protein kinase C zeta type (Homo sapiens) (UniProt Q05513); experiment: Inhibition of PKCzeta(h) at 10.0 µM in the Eurofins Kinase panel; conditions: Compound concentration 10.0 uM
[21] = biological target: Casein kinase 2 (Homo sapiens) (UniProt P67870+P68400+P19784+Q8NEV1); experiment: Inhibition of CK2(h) at 10.0 µM in the Eurofins Kinase panel; type: protein assay; conditions: Compound concentration 10.0 uM
[22] = biological target: Testis-specific serine/threonine-protein kinase 3 (Homo sapiens) (UniProt Q96PN8); experiment: Inhibition of TSSK3(h) at 10.0 µM in the Eurofins Kinase panel; conditions: Compound concentration 10.0 uM
[23] = biological target: Mast/stem cell growth factor receptor Kit (Homo sapiens) (UniProt P10721); experiment: Inhibition of cKit(h) at 10.0 µM in the Eurofins Kinase panel; conditions: Compound concentration 10.0 uM
[24] = biological target: Serine/threonine-protein kinase mTOR (Homo sapiens) (UniProt P42345); experiment: Inhibition of mTOR(h) at 10.0 µM in the Eurofins Kinase panel; conditions: Compound concentration 10.0 uM
[25] = biological target: Inhibitor of nuclear factor kappa-B kinase subunit epsilon (Homo sapiens) (UniProt Q14164); experiment: Inhibition of IKKepsilon(h) at 10.0 µM in the Eurofins Kinase panel; conditions: Compound concentration 10.0 uM
[26] = biological target: Rhodopsin kinase GRK1 (Homo sapiens) (UniProt Q15835); experiment: Inhibition of GRK1(h) at 10.0 µM in the Eurofins Kinase panel; conditions: Compound concentration 10.0 uM
[27] = biological target: Serine/threonine-protein kinase N1 (Homo sapiens) (UniProt Q16512); experiment: Inhibition of PRK1(h) at 10.0 µM in the Eurofins Kinase panel; conditions: Compound concentration 10.0 uM
[28] = biological target: Homeodomain-interacting protein kinase 3 (Homo sapiens) (UniProt Q9H422); experiment: Inhibition of HIPK3(h) at 10.0 µM in the Eurofins Kinase panel; conditions: Compound concentration 10.0 uM
[29] = biological target: Dual specificity protein kinase CLK3 (Homo sapiens) (UniProt P49761); experiment: Inhibition of CLK3(h) at 10.0 µM in the Eurofins Kinase panel; conditions: Compound concentration 10.0 uM
[30] = biological target: Mitogen-activated protein kinase 8 (Homo sapiens) (UniProt P45983); experiment: Inhibition of JNK1alpha1(h) at 10.0 µM in the Eurofins Kinase panel; conditions: Compound concentration 10.0 uM
[31] = biological target: Platelet-derived growth factor receptor beta (Homo sapiens) (UniProt P09619); experiment: Inhibition of PDGFRbeta(h) at 10.0 µM in the Eurofins Kinase panel; conditions: Compound concentration 10.0 uM
[32] = biological target: Histamine H3 receptor (Homo sapiens) (UniProt Q9Y5N1); conditions: Compound concentration 10.0 uM
[33] = biological target: Serine/threonine-protein kinase/endoribonuclease IRE1 (Homo sapiens) (UniProt O75460); experiment: Inhibition of IRE1(h) at 10.0 µM in the Eurofins Kinase panel; conditions: Compound concentration 10.0 uM
[34] = biological target: Tyrosine-protein kinase ABL2 (Homo sapiens) (UniProt P42684); experiment: Inhibition of Arg(h) at 10.0 µM in the Eurofins Kinase panel; conditions: Compound concentration 10.0 uM
[35] = biological target: Dual specificity tyrosine-phosphorylation-regulated kinase 1A (Homo sapiens) (UniProt Q13627); experiment: Inhibition of DYRK1A(h) at 10.0 µM in the Eurofins Kinase panel; conditions: Compound concentration 10.0 uM
[36] = biological target: Tyrosine-protein kinase ZAP-70 (Homo sapiens) (UniProt P43403); experiment: Inhibition of ZAP-70(h) at 10.0 µM in the Eurofins Kinase panel; conditions: Compound concentration 10.0 uM
[37] = biological target: Mitogen-activated protein kinase 11 (Homo sapiens) (UniProt Q15759); experiment: Inhibition of SAPK2b(h) at 10.0 µM in the Eurofins Kinase panel; conditions: Compound concentration 10.0 uM
[38] = biological target: Receptor tyrosine-protein kinase erbB-4 (Homo sapiens) (UniProt Q15303); experiment: Inhibition of ErbB4(h) at 10.0 µM in the Eurofins Kinase panel; conditions: Compound concentration 10.0 uM

Chain of Histamine H3 receptor (Homo sapiens) (Q9Y5N1 whole entry): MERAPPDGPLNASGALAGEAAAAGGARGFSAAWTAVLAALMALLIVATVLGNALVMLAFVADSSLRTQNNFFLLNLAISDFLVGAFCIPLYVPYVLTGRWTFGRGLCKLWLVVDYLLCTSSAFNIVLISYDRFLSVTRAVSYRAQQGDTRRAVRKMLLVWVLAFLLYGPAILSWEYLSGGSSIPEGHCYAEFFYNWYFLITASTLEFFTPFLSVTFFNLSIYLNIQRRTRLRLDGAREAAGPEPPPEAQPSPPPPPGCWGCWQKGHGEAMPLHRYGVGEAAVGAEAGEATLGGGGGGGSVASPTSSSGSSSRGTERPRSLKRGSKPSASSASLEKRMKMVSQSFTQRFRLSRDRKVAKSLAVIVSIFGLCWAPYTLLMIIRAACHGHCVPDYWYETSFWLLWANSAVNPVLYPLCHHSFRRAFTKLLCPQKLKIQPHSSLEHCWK
Chain of Mu-type opioid receptor (Homo sapiens) (P35372 whole entry): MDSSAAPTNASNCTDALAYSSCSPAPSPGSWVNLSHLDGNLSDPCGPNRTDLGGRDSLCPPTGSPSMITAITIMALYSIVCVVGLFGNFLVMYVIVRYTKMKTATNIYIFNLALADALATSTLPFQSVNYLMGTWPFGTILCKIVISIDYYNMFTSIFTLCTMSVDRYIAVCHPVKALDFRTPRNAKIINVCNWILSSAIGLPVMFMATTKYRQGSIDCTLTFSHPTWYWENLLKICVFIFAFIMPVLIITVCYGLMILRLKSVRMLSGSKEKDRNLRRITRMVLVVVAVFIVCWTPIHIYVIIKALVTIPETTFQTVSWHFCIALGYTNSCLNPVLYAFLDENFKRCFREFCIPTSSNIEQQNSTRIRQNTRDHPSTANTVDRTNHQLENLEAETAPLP
Chain of Dual specificity mitogen-activated protein kinase kinase 1 (Homo sapiens) (Q02750 whole entry): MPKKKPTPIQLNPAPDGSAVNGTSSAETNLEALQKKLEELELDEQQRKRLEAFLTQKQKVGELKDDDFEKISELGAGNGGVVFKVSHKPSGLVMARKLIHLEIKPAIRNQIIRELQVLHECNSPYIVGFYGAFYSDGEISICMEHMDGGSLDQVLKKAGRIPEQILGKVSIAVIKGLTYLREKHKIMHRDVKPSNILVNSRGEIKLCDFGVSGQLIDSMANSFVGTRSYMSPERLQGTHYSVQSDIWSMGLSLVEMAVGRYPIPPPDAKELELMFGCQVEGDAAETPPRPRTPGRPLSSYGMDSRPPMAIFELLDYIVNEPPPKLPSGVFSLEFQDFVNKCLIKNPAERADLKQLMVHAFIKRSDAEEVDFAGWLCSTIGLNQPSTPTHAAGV
Chain of [Pyruvate dehydrogenase (acetyl-transferring)] kinase isozyme 4, mitochondrial (Homo sapiens) (Q16654 whole entry, looked up): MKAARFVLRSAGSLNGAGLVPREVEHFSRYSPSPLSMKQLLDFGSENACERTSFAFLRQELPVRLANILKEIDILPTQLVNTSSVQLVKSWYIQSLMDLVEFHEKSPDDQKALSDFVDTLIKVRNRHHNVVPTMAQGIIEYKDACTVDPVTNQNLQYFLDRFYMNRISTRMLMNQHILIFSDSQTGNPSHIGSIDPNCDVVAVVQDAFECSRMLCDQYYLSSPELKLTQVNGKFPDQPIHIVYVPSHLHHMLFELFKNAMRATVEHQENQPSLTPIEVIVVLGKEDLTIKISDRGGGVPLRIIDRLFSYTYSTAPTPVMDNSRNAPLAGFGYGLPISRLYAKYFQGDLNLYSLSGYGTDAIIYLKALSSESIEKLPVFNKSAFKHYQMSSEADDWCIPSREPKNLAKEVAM
Chain of Homeodomain-interacting protein kinase 2 (Homo sapiens) (Q9H2X6 whole entry, looked up): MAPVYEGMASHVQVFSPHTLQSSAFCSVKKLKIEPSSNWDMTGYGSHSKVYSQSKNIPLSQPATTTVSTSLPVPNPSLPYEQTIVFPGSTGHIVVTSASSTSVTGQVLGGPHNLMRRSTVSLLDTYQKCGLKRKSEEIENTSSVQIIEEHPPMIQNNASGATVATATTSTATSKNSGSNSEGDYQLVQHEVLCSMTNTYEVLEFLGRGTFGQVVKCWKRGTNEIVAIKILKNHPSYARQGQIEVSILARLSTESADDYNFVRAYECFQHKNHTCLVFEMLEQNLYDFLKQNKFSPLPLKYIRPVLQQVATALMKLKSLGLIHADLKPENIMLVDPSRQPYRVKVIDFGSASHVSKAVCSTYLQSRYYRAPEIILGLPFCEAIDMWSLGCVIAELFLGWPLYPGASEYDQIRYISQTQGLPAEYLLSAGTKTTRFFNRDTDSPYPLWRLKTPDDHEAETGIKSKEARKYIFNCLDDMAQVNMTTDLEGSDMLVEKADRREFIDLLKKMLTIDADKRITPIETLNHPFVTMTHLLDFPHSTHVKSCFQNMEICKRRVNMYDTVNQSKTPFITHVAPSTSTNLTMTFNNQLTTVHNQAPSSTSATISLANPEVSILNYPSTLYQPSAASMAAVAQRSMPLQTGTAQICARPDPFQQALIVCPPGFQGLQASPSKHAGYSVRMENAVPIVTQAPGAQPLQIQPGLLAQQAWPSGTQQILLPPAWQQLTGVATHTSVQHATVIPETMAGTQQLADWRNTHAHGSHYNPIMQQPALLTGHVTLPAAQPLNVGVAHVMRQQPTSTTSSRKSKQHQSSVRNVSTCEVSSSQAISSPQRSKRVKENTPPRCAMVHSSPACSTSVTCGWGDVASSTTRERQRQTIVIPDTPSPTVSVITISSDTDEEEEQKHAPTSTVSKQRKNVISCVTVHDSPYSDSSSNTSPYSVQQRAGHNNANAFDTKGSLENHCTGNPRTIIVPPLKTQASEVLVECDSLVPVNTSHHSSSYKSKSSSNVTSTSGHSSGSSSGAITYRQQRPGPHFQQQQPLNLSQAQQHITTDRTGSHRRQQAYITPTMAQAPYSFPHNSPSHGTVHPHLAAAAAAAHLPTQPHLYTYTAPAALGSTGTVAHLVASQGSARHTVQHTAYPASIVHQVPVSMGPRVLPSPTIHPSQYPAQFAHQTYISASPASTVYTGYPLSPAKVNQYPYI
Chain of NUAK family SNF1-like kinase 2 (Homo sapiens) (Q9H093 whole entry): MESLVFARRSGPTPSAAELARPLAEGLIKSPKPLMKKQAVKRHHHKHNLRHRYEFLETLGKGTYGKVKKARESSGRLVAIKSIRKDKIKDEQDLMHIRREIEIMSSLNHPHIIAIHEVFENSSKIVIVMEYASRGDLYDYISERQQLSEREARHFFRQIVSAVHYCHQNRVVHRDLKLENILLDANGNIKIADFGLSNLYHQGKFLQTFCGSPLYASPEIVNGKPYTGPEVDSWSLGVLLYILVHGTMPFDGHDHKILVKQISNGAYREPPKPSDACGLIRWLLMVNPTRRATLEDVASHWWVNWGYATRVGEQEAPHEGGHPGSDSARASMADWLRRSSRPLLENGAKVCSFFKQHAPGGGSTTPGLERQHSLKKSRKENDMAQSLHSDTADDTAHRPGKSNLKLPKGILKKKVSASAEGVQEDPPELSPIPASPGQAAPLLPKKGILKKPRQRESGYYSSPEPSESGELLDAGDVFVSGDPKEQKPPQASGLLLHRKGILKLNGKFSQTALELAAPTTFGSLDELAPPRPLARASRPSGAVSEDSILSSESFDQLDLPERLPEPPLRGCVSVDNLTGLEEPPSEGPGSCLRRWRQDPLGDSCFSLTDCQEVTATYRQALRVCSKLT
Chain of Serine/threonine-protein kinase/endoribonuclease IRE1 (Homo sapiens) (O75460 19-977 limits assumed): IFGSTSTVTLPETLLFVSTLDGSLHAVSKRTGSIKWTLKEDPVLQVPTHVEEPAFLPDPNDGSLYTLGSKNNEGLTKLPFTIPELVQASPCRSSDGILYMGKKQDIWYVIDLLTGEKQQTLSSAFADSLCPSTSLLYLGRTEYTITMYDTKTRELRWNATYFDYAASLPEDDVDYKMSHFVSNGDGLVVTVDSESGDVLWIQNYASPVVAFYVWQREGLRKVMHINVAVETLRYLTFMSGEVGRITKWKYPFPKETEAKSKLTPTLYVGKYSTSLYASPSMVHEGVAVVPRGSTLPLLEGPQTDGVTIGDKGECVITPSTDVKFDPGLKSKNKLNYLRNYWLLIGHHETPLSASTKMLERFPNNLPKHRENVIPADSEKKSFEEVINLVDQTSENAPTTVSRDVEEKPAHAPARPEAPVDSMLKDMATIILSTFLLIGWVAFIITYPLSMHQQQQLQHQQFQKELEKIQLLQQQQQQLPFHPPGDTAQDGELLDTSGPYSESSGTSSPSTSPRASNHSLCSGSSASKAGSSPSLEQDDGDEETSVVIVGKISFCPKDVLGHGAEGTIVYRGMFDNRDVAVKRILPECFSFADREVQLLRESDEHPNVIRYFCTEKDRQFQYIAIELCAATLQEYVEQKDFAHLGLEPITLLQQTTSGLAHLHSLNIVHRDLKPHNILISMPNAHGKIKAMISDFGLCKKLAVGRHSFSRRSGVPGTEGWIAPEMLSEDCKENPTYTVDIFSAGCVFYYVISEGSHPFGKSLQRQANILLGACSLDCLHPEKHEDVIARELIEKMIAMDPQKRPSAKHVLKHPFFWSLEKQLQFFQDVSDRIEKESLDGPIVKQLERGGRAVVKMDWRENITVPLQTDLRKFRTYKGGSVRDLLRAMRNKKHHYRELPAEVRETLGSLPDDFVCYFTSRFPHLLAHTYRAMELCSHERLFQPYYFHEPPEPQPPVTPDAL
Chain of Activin receptor type-1 (Homo sapiens) (Q04771 whole entry): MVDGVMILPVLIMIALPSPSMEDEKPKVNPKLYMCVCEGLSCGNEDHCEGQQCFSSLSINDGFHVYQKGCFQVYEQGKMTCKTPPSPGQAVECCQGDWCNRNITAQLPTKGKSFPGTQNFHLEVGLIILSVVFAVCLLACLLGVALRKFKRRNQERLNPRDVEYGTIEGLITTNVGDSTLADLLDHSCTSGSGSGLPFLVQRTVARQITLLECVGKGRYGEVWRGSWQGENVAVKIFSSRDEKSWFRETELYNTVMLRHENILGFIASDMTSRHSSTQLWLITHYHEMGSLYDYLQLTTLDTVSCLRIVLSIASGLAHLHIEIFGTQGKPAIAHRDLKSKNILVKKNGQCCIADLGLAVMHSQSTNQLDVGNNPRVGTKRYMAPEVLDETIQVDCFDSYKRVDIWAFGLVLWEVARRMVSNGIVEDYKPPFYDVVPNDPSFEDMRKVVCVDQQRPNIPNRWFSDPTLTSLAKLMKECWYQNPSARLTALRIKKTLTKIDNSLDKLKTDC

Structure (SMILES)	inhibition [1] [%]	inhibition [2] [%]	inhibition [3] [%]	inhibition [4] [%]	inhibition [5] [%]	inhibition [6] [%]	inhibition [7] [%]	inhibition [8] [%]	inhibition [9] [%]	inhibition [10] [%]	inhibition [11] [%]	inhibition [12] [%]	inhibition [13] [%]	inhibition [14] [%]	inhibition [15] [%]	inhibition [16] [%]	inhibition [17] [%]	inhibition [18] [%]	inhibition [19] [%]	inhibition [20] [%]	other results
O=c1n(Cc2cncn2-c2cccc(Cl)c2)nc(-c2ccc(Cl)cc2)n1C[C@H](O)C(F)(F)F	-3.19	-2.29	5.33	5.68	4.57	-1.55	2.28	-2.76	3	-4	2.09	3.57	-2.6	6.13	0.43	4.16	-1.01	5	-9.36	8.34	inhibition [21]: -3.37%; inhibition [22]: -6.06%; inhibition [23]: 7.72%; inhibition [24]: 5.25%; inhibition [25]: 0.02%; inhibition [26]: -8.45%; inhibition [27]: -8.29%; inhibition [28]: 2.57%; inhibition [29]: 1.4%; inhibition [30]: -1.22%; inhibition [31]: -9.1%; inhibition [32]: 5.05%; inhibition [33]: 19.2%; inhibition [34]: 2.02%; inhibition [35]: 3.54%; inhibition [36]: 8.99%; inhibition [37]: -0.67%; inhibition [38]: -8.65%
C[C@H](O)c1nc(Cn2nc(-c3ccc(Cl)cc3)n(C[C@H](O)C(F)(F)F)c2=O)nn1-c1cccc(Cl)c1 [PECAVAPTAN]	-2.67	-2.51	-2.47	9.02	-3.73	-6.39	-1.69	-0.83	2	-10	-0.21	-1.95	-1.32	14.4	4.18	0.84	4.99	5	-6.27	18.7	inhibition [21]: 5.37%; inhibition [22]: -7.5%; inhibition [23]: 4.28%; inhibition [24]: -1.45%; inhibition [25]: 3.03%; inhibition [26]: 6.58%; inhibition [27]: -3.85%; inhibition [28]: 3.3%; inhibition [29]: -0.38%; inhibition [30]: -3.82%; inhibition [31]: -5.19%; inhibition [32]: 11.9%; inhibition [33]: 5.58%; inhibition [34]: -0.68%; inhibition [35]: 8.95%; inhibition [36]: 2.69%; inhibition [37]: 1.32%; inhibition [38]: -4.41%
